Source: PubChem BioAssay AID328 (DTP/NCI, 2004)
Values joined by “and” are separate entries in the source; they are usually repeats but may differ in a detail not shown here. Equal values may be shown once. Inconclusive results and toxic doses are left out.

Test system: BDF1 mice, P388 leukemia ip, median survival T/C
Assay: NCI In Vivo Anticancer Drug Screen. Data for tumor model P388 Leukemia (intraperitoneal) in B6D2F1 (BDF1) mice
Conditions: endpoint: median survival time, higher = longer survival
How it was run: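 Survival ratio, drug arm over vehicle arm, in mice with a transplanted tumour.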

[1] = dose: 50.0 mg/kg/injection, schedule: Q01DX009 (ip), vehicle: saline with Tween-80
[2] = dose: 100.0 mg/kg/injection, schedule: Q01DX009 (ip), vehicle: saline with Tween-80
[3] = dose: 200.0 mg/kg/injection, schedule: Q01DX009 (ip), vehicle: saline with Tween-80
[4] = dose: 400.0 mg/kg/injection, schedule: Q01DX009 (ip), vehicle: saline with Tween-80

O=NN(CCCl)C(=O)Nc1ccc(CCO)cc1
T/C (dose: 0.12 mg/kg/injection, schedule: Q04DX003 (ip), vehicle: saline): 100 % of control
T/C (dose: 0.13 mg/kg/injection, schedule: Q01DX009 (ip), vehicle: Klucel (hydroxypropylcellulose) (HPC)): 112 % of control
T/C (dose: 0.2 mg/kg/injection, schedule: Q01DX009 (ip), vehicle: Klucel (hydroxypropylcellulose) (HPC)): 91 % of control
T/C (dose: 0.2 mg/kg/injection, schedule: Q01DX009 (ip), vehicle: alcohol): 100 % of control
T/C (dose: 0.25 mg/kg/injection, schedule: Q04DX003 (ip), vehicle: saline): 104 % of control
T/C (dose: 0.3 mg/kg/injection, schedule: Q01DX009 (ip), vehicle: alcohol): 108 % of control
T/C (dose: 0.5 mg/kg/injection, schedule: Q01DX009 (ip), vehicle: alcohol): 150 % of control
T/C (dose: 0.5 mg/kg/injection, schedule: Q01DX009 (ip), vehicle: other): 181 % of control
T/C (dose: 0.5 mg/kg/injection, schedule: Q04DX003 (ip), vehicle: saline + alcohol): 155 % of control
T/C (dose: 0.5 mg/kg/injection, schedule: Q04DX003 (ip), vehicle: saline): 117 % of control
T/C (dose: 1.0 mg/kg/injection, schedule: Q01DX009 (ip), vehicle: Klucel (hydroxypropylcellulose) (HPC)): 150 % of control
T/C (dose: 1.0 mg/kg/injection, schedule: Q01DX009 (ip), vehicle: alcohol): 183 % of control
T/C (dose: 1.0 mg/kg/injection, schedule: Q01DX009 (ip), vehicle: other): 181 % of control
T/C (dose: 1.0 mg/kg/injection, schedule: Q04DX003 (ip), vehicle: saline + alcohol): 188 % of control
T/C (dose: 1.65 mg/kg/injection, schedule: Q01DX009 (ip), vehicle: Klucel (hydroxypropylcellulose) (HPC)): 200 % of control
T/C (dose: 1.65 mg/kg/injection, schedule: Q01DX009 (ip), vehicle: saline): 266 % of control
T/C (dose: 2.0 mg/kg/injection, schedule: Q01DX009 (ip), vehicle: alcohol): 237 % of control
T/C (dose: 2.0 mg/kg/injection, schedule: Q01DX009 (ip), vehicle: other): 254 % of control
T/C (dose: 2.0 mg/kg/injection, schedule: Q04DX003 (ip), vehicle: saline + alcohol): 255 % of control
T/C (dose: 2.5 mg/kg/injection, schedule: Q01DX009 (ip), vehicle: Klucel (hydroxypropylcellulose) (HPC)): 257 % of control
T/C (dose: 2.5 mg/kg/injection, schedule: Q01DX009 (ip), vehicle: saline with Tween-80): 240 % of control
T/C (dose: 2.5 mg/kg/injection, schedule: Q01DX009 (ip), vehicle: saline): 333 % of control
T/C (dose: 3.75 mg/kg/injection, schedule: Q01DX009 (ip), vehicle: Klucel (hydroxypropylcellulose) (HPC)): 289 % of control
T/C (dose: 3.75 mg/kg/injection, schedule: Q01DX009 (ip), vehicle: saline): 333 % of control
T/C (dose: 4.0 mg/kg/injection, schedule: Q01DX009 (ip), vehicle: alcohol): 250 % of control
T/C (dose: 4.0 mg/kg/injection, schedule: Q01DX009 (ip), vehicle: other): 272 % of control
T/C (dose: 4.0 mg/kg/injection, schedule: Q04DX003 (ip), vehicle: saline + alcohol): 322 % of control
T/C (dose: 5.0 mg/kg/injection, schedule: Q01DX009 (ip), vehicle: saline with Tween-80): 270 % of control
T/C (dose: 6.25 mg/kg/injection, schedule: Q01DX009 (ip), vehicle: saline): 180 % of control
T/C (dose: 6.25 mg/kg/injection, schedule: Q04DX003 (ip), vehicle: saline + alcohol): 272 % of control
T/C (dose: 10.0 mg/kg/injection, schedule: Q01DX009 (ip), vehicle: saline with Tween-80): 110 % of control
T/C (dose: 12.5 mg/kg/injection, schedule: Q01DX009 (ip), vehicle: saline): 100 % of control
T/C (dose: 12.5 mg/kg/injection, schedule: Q04DX003 (ip), vehicle: saline + alcohol): 272 % of control
T/C (dose: 25.0 mg/kg/injection, schedule: Q04DX003 (ip), vehicle: saline sonified): 90 % of control

O/N=c1/ccn(O)c2ccccc12
T/C (dose: 0.14 mg/kg/injection, schedule: Q01DX009 (ip), vehicle: saline): 168 % of control
T/C (dose: 0.19 mg/kg/injection, schedule: Q04DX003 (ip), vehicle: saline): 116 % of control
T/C (dose: 0.29 mg/kg/injection, schedule: Q04DX003 (ip), vehicle: saline): 120 % of control
T/C (dose: 0.34 mg/kg/injection, schedule: Q01DX009 (ip), vehicle: saline): 155 % of control and 183 % of control and 190 % of control
T/C (dose: 0.44 mg/kg/injection, schedule: Q04DX003 (ip), vehicle: saline): 180 % of control
T/C (dose: 0.51 mg/kg/injection, schedule: Q01DX009 (ip), vehicle: saline): 162 % of control and 170 % of control and 195 % of control
T/C (dose: 0.66 mg/kg/injection, schedule: Q04DX003 (ip), vehicle: saline): 210 % of control
T/C (dose: 1.0 mg/kg/injection, schedule: Q04DX003 (ip), vehicle: saline): 172 % of control
T/C (dose: 1.5 mg/kg/injection, schedule: Q04DX003 (ip), vehicle: saline): 181 % of control
T/C (dose: 4.65 mg/kg/injection, schedule: Q04DX003 (ip), vehicle: saline): 173 % of control
T/C (dose: 11.0 micrograms/kg/injection, schedule: Q01DX009 (ip), vehicle: saline): 104 % of control
T/C (dose: 22.0 micrograms/kg/injection, schedule: Q01DX009 (ip), vehicle: saline): 108 % of control
T/C (dose: 45.0 micrograms/kg/injection, schedule: Q01DX009 (ip), vehicle: saline): 104 % of control

Cc1cc(C)[n+](C)c2cc3ccccc3cc12
T/C (dose: 50.0 mg/kg/injection, schedule: Q01DX005 (ip), vehicle: saline with Tween-80): 155 % of control

CC1CCC2(OC1)OC1CC3C4CCC5CC(O)C(O)CC5(C)C4CCC3(C)C1C2C (centres undefined)
T/C (dose: 100.0 mg/kg/injection, schedule: Q04DX003 (ip), vehicle: other): 91 % of control
T/C (dose: 200.0 mg/kg/injection, schedule: Q04DX003 (ip), vehicle: other): 87 % of control
T/C (dose: 400.0 mg/kg/injection, schedule: Q04DX003 (ip), vehicle: other): 87 % of control

CN(C(=O)/C=C/C(=O)O)c1ccccc1
T/C (dose: 25.0 mg/kg/injection, schedule: Q01DX009 (ip), vehicle: saline with Tween-80): 109 % of control
T/C [1]: 109 % of control
T/C [2]: 109 % of control
T/C [3]: 113 % of control
T/C [4]: 100 % of control

CN(C)C(=O)Nc1ccc(Cc2ccc(NC(=O)N(C)C)cc2)cc1
T/C [1]: 96 % of control
T/C [2]: 99 % of control
T/C [3]: 108 % of control
T/C [4]: 99 % of control

CCCCCCCCCC(=O)CCCC
T/C (dose: 100.0 mg/kg/injection, schedule: Q04DX003 (ip), vehicle: saline with Tween-80): 100 % of control
T/C (dose: 200.0 mg/kg/injection, schedule: Q04DX003 (ip), vehicle: saline with Tween-80): 91 % of control
T/C (dose: 400.0 mg/kg/injection, schedule: Q04DX003 (ip), vehicle: saline with Tween-80): 108 % of control

COC1CCC(OC2CC(C3(C)CCC4(CC(O)C(C)C(C(C)/C=C(\C)C(=O)C(C)CC(C)C(=O)O)O4)O3)OC3(OC(C4OC(O)(CO)C(C)CC4C)CC3C)C2C)OC1C (centres undefined)
T/C (dose: 62.5 micrograms/kg/injection, schedule: Q01DX009 (ip), vehicle: Klucel (hydroxypropylcellulose) (HPC)): 111 % of control
T/C (dose: 125.0 micrograms/kg/injection, schedule: Q01DX009 (ip), vehicle: Klucel (hydroxypropylcellulose) (HPC)): 97 % of control
T/C (dose: 250.0 micrograms/kg/injection, schedule: Q01DX009 (ip), vehicle: Klucel (hydroxypropylcellulose) (HPC)): 97 % of control
T/C (dose: 500.0 micrograms/kg/injection, schedule: Q01DX009 (ip), vehicle: Klucel (hydroxypropylcellulose) (HPC)): 97 % of control

CCN(CC)Cc1cc(Nc2cc(C)nc(Nc3ccc(Cl)c(Cl)c3)n2)ccc1OC
T/C (dose: 12.5 mg/kg/injection, schedule: Q04DX003 (ip), vehicle: saline with Tween-80): 110 % of control
T/C (dose: 25.0 mg/kg/injection, schedule: Q04DX003 (ip), vehicle: saline with Tween-80): 110 % of control
T/C (dose: 50.0 mg/kg/injection, schedule: Q04DX003 (ip), vehicle: saline with Tween-80): 110 % of control

O=C(C(=O)C(Br)Br)C(Br)Br
T/C (dose: 6.25 mg/kg/injection, schedule: Q01DX009 (ip), vehicle: DMSO): 97 % of control

Cc1cc(N(C)C)c2ccc3ccccc3c2n1
T/C [1]: 93 % of control
T/C [2]: 95 % of control
T/C [3]: 101 % of control
